Here are results for 28 compounds from US20250051347A1, “BIFUNCTIONAL CHIMERIC HETEROCYCLIC COMPOUND AND USE THEREOF AS ANDROGEN RECEPTOR DEGRADER” (Hinova Pharmaceuticals, Inc., priority 2021, published 2025).

A value given as a limit tells only on which side of the number the result lay.

The target in the first experiment is T1, androgen receptor (AR) splicing variant AR-v7 (Homo sapiens, UniProt P10275).
T1 construct: The degradation activity of compounds on AR-v7 in 22RV1 cells; host or cells: 22RV1 cells
T1 sequence (P10275 1-644 isoform P10275-3): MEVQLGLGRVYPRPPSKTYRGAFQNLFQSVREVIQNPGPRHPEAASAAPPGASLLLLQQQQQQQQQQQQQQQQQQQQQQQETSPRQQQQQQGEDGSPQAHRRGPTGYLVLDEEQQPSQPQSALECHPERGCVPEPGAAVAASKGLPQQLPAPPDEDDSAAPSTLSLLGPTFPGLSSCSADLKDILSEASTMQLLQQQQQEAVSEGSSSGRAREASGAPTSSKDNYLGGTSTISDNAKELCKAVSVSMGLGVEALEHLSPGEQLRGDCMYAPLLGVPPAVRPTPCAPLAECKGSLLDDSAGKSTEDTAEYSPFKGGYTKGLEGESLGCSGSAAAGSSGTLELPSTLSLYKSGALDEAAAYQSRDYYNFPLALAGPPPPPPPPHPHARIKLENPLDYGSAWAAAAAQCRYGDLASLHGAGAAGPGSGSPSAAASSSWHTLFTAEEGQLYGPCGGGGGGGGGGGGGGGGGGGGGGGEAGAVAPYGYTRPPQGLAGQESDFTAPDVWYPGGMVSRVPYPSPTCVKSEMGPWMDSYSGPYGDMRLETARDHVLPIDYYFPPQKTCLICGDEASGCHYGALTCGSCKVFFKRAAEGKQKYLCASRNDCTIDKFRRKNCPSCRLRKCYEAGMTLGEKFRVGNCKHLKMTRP
The experiment is described as follows: Degradation activity on androgen receptor splicing variant AR-v7 in 22RV1 cells (ELISA). It is filed as cell-based. The note with it: AR-v7 degradation in 22RV1 cells, 48 h, class symbols. As for the experimental part: The degradation activity of the compound of the present invention on the androgen receptor splicing variant AR-V7 was analyzed using enzyme-linked immunosorbent assay (ELISA).
The plate was cultured in a 5% CO2 cell incubator at 37° C. for 2 days until the cells adhered to the wall. • 2) The drug was prepared into 10 mM stock solution with dimethylsulfoxide (DMSO). […] The plate was gently shaken and mixed. In addition, negative control wells (only containing culture medium) and positive control wells (only containing cells and DMSO) were set. • 3) After the cells were cultured in an incubator for 48 h, the medium was removed and the cells were rinsed once with ice cold PBS. Then, ice-cold 1× cell lysis buffer was added to each well of the cell culture plate. After the plate was incubated on ice for 15 min, the plate was tapped to mix. • 4) The supernatant of the cell lysate was transferred from the cell culture plate to a […] plate for ELISA. • 5) The newly prepared Capture antibody (green) was mixed with the newly prepared HRP-labeled antibody (red), and then the antibody mixture was added to the above 96-well ELISA plate. • 6) The ELISA plate was sealed with plastic film, and then incubated in a 25° C. incubator for 1 h. • 7) The washing buffer was added to each well, and then TMB substrate was added to each well of the ELISA plate. Subsequently, the plate was cultured in an incubator at 37° C. for 5 min. • 8) 100 μl of stop solution was added to each well of the ELISA plate, and the plate was gently tapped for several seconds. The absorbance was read at 450 nm within 30 min. The data were analyzed by the Dose-response equation in the software GraphPad Prism8, to obtain DC50 and Dmax values.
Background: ELISA stands for enzyme-linked immunosorbent assay.
As a reminder, the DC50 is the concentration at which degradation of the target reaches its halfway point. Compound `CCC(CC)(c1ccc(OCCCNc2ccc3c(c2)C(=O)N(C2CCC(=O)NC2=O)C3=O)cc1)c1ccc(OCc2ccnc(C(C)=O)n2)cc1` (stereo not shown) [Example 439, 5-((3-(4-(3-(4-((2-acetylpyrimidin-4-yl)methoxy)phenyl)pentan-3-yl)phenoxy)propyl)amino)-2-(2,6-dioxopiperidine-3-amino)isoindolin-1,3-dione] showed a DC50 of 11 to 100 nM. The same measure, in the same setting: with `Cc1nc(-c2ncc(Oc3ccc(C(C)(C)c4ccc(OC[C@@H]5CCN5c5ccc6c(c5)C(=O)N(C5CCC(=O)NC5=O)C6=O)cc4)cc3)cn2)no1` (stereo partly drawn) [Example 326, 2-(2,6-dioxopiperidin-3-yl)-5-((S)-2-((4-(2-(4-((2-(5-methyl-1,2,4-oxadiazol-3-yl)pyrimidin-5-yl)oxy)phenyl)propan-2-yl)phenoxy)methyl)azetidin-1-yl)isoindolin-1,3-dione] the figure was 11 to 100 nM; with `CC(C)(c1ccc(OCC(=O)Nc2ccc3c(c2)C(=O)N(C2CCC(=O)NC2=O)C3=O)cc1)c1ccc(OCc2ccnc(N3CC4(COC4)C3)n2)cc1` (stereo not shown) [Example 568], 11 to 100 nM; with `CC(C)(c1ccc(OCc2nc(N3CC4(COC4)C3)ncc2F)cc1)c1ccc(O[C@H]2C[C@@H](Nc3ccc4c(c3)C(=O)N(C3CCC(=O)NC3=O)C4=O)C2)cc1` (stereo partly shown) [Example 199], 11 to 100 nM. The same measure, in the same setting: with `CC1(CNc2nccc(COc3ccc(C(C)(C)c4ccc(O[C@H]5C[C@@H](Nc6ccc7c(c6)C(=O)N(C6CCC(=O)NC6=O)C7=O)C5)cc4)cc3)n2)COC1` (stereo partly shown) [Example 269] the figure was 101 to 1000 nM; with `CC(C)(c1ccc(OCCCCNc2cccc3c2C(=O)N(C2CCC(=O)NC2=O)C3=O)cc1)c1ccc(OCc2ccnc(NS(C)(=O)=O)n2)cc1` (stereo not shown) [Example 10, N-(4-((4-(2-(4-(4-((2-(2,6-dioxopiperidin-3-yl)-1,3-dioxoisoindolin-yl)amino)butoxy)phenyl)propan-2-yl)phenoxy)methyl)pyrimidin-2-yl)methanesulfonamide], 1000 to 5000 nM.

Turning to `CC(C)(c1ccc(OCc2ccnc(N3CC4(COC4)C3)n2)cc1)c1ccc(O[C@H]2CCC[C@H]2Nc2ccc3c(c2)C(=O)N(C2CCC(=O)NC2=O)C3=O)cc1` (stereo partly shown) [Example 315], the DC50 was in the range of 1000 to 5000 nM.

Compound `Cc1noc(-c2ncc(Oc3ccc(C(C)(C)c4ccc(O[C@H]5C[C@@H](Nc6ccc7c(c6)C(=O)N(C6CCC(=O)NC6=O)C7=O)C5)cc4)cc3)cn2)n1` (stereo partly shown) [Example 263] displayed a DC50 of 11 to 100 nM. As for `Cc1nnc(-c2coc(Oc3ccc(C(C)(C)c4ccc(O[C@H]5C[C@H](Nc6ccc7c(c6)C(=O)N(C6CCC(=O)NC6=O)C7=O)C5)cc4)cc3)n2)o1` (stereo partly shown) [Example 514], the DC50 was in the range of 11 to 100 nM.

Take `CC(C)(c1ccc(OCCCNc2cccc3c2C(=O)N(C2CCC(=O)NC2=O)C3=O)cc1)c1ccc(OCc2ccnc(N3CCC3)n2)cc1` (stereo not shown) [Example 554, 4-((3-(4-(2-(4-((2-(azetidin-1-yl)pyrimidin-4-yl)methoxy)phenyl)propan-2-yl)phenoxy)propyl)amino)-2-(2,6-dioxopiperidin-3-yl)isoindolin-1,3-dione]: the DC50 was 101 to 1000 nM. Still for that read-out and setting: with `Cc1nnc(-c2ccnc(Oc3ccc(C(C)(C)c4ccc(O[C@H]5C[C@H](Nc6ccc7c(c6)C(=O)N(C6CCC(=O)NC6=O)C7=O)C5)cc4)cc3)c2)o1` (stereo partly shown) [Example 257] the figure was 11 to 100 nM; with `CC(C)(c1ccc(OCc2ccc(F)c(-n3ccnn3)n2)cc1)c1ccc(O[C@H]2C[C@H](Nc3ccc4c(c3)C(=O)N(C3CCC(=O)NC3=O)C4=O)C2)cc1` (stereo partly shown) [Example 286], 11 to 100 nM. For `CC(C)(c1ccc(OCCCCCCCCOCCCCNc2ccc3c(c2)C(=O)N(C2CCC(=O)NC2=O)C3=O)cc1)c1ccc(OCc2ccnc(NS(=O)(=O)C3CC3)n2)cc1` (stereo not shown) [Example 50], the DC50 fell in the range of 101 to 1000 nM. Still for that read-out and setting: for `CC(C)(c1ccc(OCCCNc2ccc3c(c2)C(=O)N(C2CCC(=O)NC2=O)C3=O)cc1)c1ccc(OCc2nc(C(N)=O)cs2)cc1` (stereo not shown) [Example 441, 2-((4-(2-(4-(3-((2-(2,6-dioxopiperidin-3-yl)-1,3-dioxoisoindolin-5-yl)amino)propoxy)phenyl)propan-2-yl)phenoxy)methyl) thiazol-4-carbonylamine] the value was 11 to 100 nM. On the same count and under the same terms, with `CN(C)[C@H]1CCN(c2nccc(COc3ccc(C(C)(C)c4ccc(O[C@H]5C[C@@H](Nc6ccc7c(c6)C(=O)N(C6CCC(=O)NC6=O)C7=O)C5)cc4)cc3)n2)C1` (stereo partly shown) [Example 238] the figure was 11 to 100 nM; with `Cc1nc(-c2cncc(Oc3ccc(C(C)(C)c4ccc(O[C@H]5C[C@H](Nc6ccc7c(c6)C(=O)N(C6CCC(=O)NC6=O)C7=O)C5)cc4)cc3)n2)no1` (stereo partly shown) [Example 585], 11 to 100 nM; with `Cn1nc(C(F)(F)F)cc1-c1nccc(COc2ccc(C(C)(C)c3ccc(O[C@H]4C[C@@H](Nc5ccc6c(c5)C(=O)N(C5CCC(=O)NC5=O)C6=O)C4)cc3)cc2)n1` (stereo partly shown) [Example 462], 101 to 1000 nM. On the same count and under the same terms, for `Cn1cc(-c2ccc(Oc3ccc(C(C)(C)c4ccc(O[C@H]5C[C@H](Nc6ccc7c(c6)C(=O)N(C6CCC(=O)NC6=O)C7=O)C5)cc4)cc3)cn2)cn1` (stereo partly shown) [Example 205] the value was 11 to 100 nM; for `CC(C)(c1ccc(Oc2cnc(C(=O)O)nc2)cc1)c1ccc(O[C@H]2C[C@H](Nc3ccc4c(c3)C(=O)N(C3CCC(=O)NC3=O)C4=O)C2)cc1` (stereo partly shown) [Example 267, 5-(4-(2-(4-((1r,3r)-3-((2-(2,6-dioxopiperidin-3-yl)-1,3-dioxoisoindolin-5-yl)amino)cyclobutyloxy)phenyl)propan-2-yl)phenoxy)pyrimidin-2-carboxylic acid], 101 to 1000 nM; for `CN(C)C1CCCN(c2nccc(COc3ccc(C(C)(C)c4ccc(O[C@H]5C[C@@H](Nc6ccc7c(c6)C(=O)N(C6CCC(=O)NC6=O)C7=O)C5)cc4)cc3)n2)C1` (stereo partly shown) [Example 404], 11 to 100 nM. Compound `CC(C)(c1ccc(Oc2ccc(-n3nccn3)nc2)cc1)c1ccc(O[C@H]2C[C@@H](Nc3ccc4c(c3)C(=O)N(C3CCC(=O)NC3=O)C4=O)C2)cc1` (stereo partly shown) [Example 540] displayed a DC50 of 11 to 100 nM. Still for that read-out and setting: for `CC(=O)c1nccc(COc2ccc(C(C)(C)c3ccc(OCCCCCCCCOCCCCNc4ccc5c(c4)C(=O)N(C4CCC(=O)NC4=O)C5=O)cc3)cc2)n1` (stereo not shown) [Example 136, 5-((4-((8-(4-(2-(4-((2-acetylpyrimidin-4-yl)methoxy)phenyl)propan-2-yl)phenoxy)octyl)oxy)butyl)amino)-2-(2,6-dioxopiperidin-3-yl)isoindolin-1,3-dione] the value was 101 to 1000 nM; for `CS(=O)(=O)Nc1cc(COc2ccc(C3(c4ccc(OCCCCCCCCOCCCCNc5ccc6c(c5)C(=O)N(C5CCC(=O)NC5=O)C6=O)cc4)CCC3)cc2)ccn1` (stereo not shown) [Example 58], 1000 to 5000 nM; for `O=C1CCC(N2C(=O)c3ccc(N[C@H]4C[C@H](Oc5ccc(Cc6ccc(Oc7cnc(-n8ccnn8)nc7)cc6)cc5)C4)cc3C2=O)C(=O)N1` (stereo partly shown) [Example 520], 11 to 100 nM. Same read-out and setting: for `CC(C)(c1ccc(OCc2ccc(F)c(-n3nccn3)n2)cc1)c1ccc(O[C@H]2C[C@H](Nc3ccc4c(c3)C(=O)N(C3CCC(=O)NC3=O)C4=O)C2)cc1` (stereo partly shown) [Example 287] the value was 11 to 100 nM; for `CC(c1ccc(Oc2cnc(-n3ccnn3)nc2)cc1)c1ccc(O[C@H]2C[C@H](Nc3ccc4c(c3)C(=O)N(C3CCC(=O)NC3=O)C4=O)C2)cc1` (stereo partly shown) [Example 519], 11 to 100 nM.

Staying with this experiment, now noted: AR-v7 degradation in 22RV1 cells, 48 h, numeric values.
`CC(C)(c1ccc(OCCCCCCN2CCC(CN3CCN(c4ccc5c(c4)C(=O)N(C4CCC(=O)NC4=O)C5=O)CC3)CC2)cc1)c1ccc(OCc2ccnc(NS(C)(=O)=O)n2)cc1` (stereo not shown) [Example 6] came in with a DC50 of 6330 nM.

As for `CC(C)(c1ccc(OCCCCCCCOCCCN2CCN(c3ccc4c(c3)C(=O)N(C3CCC(=O)NC3=O)C4=O)CC2)cc1)c1ccc(OCc2ccnc(NS(C)(=O)=O)n2)cc1` (stereo not shown) [Example 7, N-(4-((4-(2-(4-((7-(3-(4-(2-(2,6-dioxopiperidin-3-yl)-1,3-dioxoisoindolin-5-yl)piperazin-1-yl)propoxy)heptyl)oxy)phenyl)propan-2-yl)phenoxy)methyl)pyrimidin-2-yl)methanesulfonamide], the DC50 is over 10000 nM.
